Assay results reported in patent EP4545091A1 (priority 2023, dated 2025).
pIC50: −log10 of the molar value. Where a name gives a salt, the structure may show the parent alone. Bridges are numbered along the chain shown (N, C = ends).

How the values were obtained:
[1] = test system: SARS-CoV-2 Wuhan Hu-1 spike; experiment: microbe, parasite or virus in culture; format: cell-based; conditions: Severe acute respiratory syndrome coronavirus 2, Caco-2, 48 h, read-out: IC50, SARS-CoV-2 spike-driven entry
[2] = test system: SARS-CoV-2 Wuhan Hu-1 strain; conditions: 48 h
SARS-CoV-2 BA.5 = format: cell-based
[3] = test system: Influenza A virus (IAV) H1N1; conditions: virus (IAV, 48 h)
SARS-CoV spike = conditions: 48 h
hCoV-NL63 = conditions: 48 h
VSV-G glycoprotein = format: cell-based
MERS-CoV spike = conditions: 48 h
SARS-CoV-2 Omicron BA.5 = format: cell-based

Compound | pIC50 [1] | pIC50 [2] | reduction of cumulative RNA copy production (SARS-CoV-2 BA.5) [%] | replication (RNA copies/ml in supernatants) (SARS-CoV-2 BA.5) | pIC50 [3] | pIC50 (SARS-CoV spike) | pIC50 (hCoV-NL63) | entry of VSV-G bearing control pseudoparticles (VSV-G glycoprotein) | pIC50 (MERS-CoV spike) | viral titers two days post infection (SARS-CoV-2 Omicron BA.5)
CN(C)C(=O)COC(=O)Cc1ccc(OC(=O)c2ccc(NC(=N)N)cc2)cc1 [Camostat mesylate] | 7.15 |  |  |  |  |  |  |  |  | 
VAACNLPIVRGPCRAFIQLWAFDAVKGKCVLFPYGGCQGNGNKFYSEKECREYCGVPGDGD (disulfide 4-54, 13-37, 29-50) [Trypstatin] |  | 7.59 | > 99.9 | almost entirely prevented replication | 6.65 | 7.51 | 6.72 | did not affect entry | 7.11 | strongly reduced viral titers
